Assay results published in patent publication US5200553A, “Biologically active carboxylic acid esters” (Kupat Holim Health Insurance Institution of the General …, priority 1987, dated 1993).
Counter-ions that a name gives are not always drawn. Like-named read-outs stand apart in the source and are kept apart here.

Key:
B16 Melanoma [1] = assay: In vivo efficacy, 3B131 intraperitoneally implanted B16 Melanoma; set-up: species or system mouse; conditions: i.p., 1-9 days, daily
[2] = system: leukemic cells from six myeloid leukemic patients and promyelocytic cell line HL-60 (which one is not stated); assay: Induction of cytodifferentiation, reduction of nitro blue tetrazolium (NBT); format: cell-based; conditions: 0.15 mM
Procedure: (c) Induction of cytodifferentiation. This was evaluated by reduction of nitro blue tetrazolium (NBT), which is indicative of functional maturity of leucocytes.

[3] = system: promyelocytic cell line HL-60; assay: Inhibition of cell proliferation, tritiated thymidine incorporation, cells (ii); format: cell-based; conditions: for inhibition at 500 µM: Homo sapiens
Procedure: (§1) The compound of the invention prepared in Example I gave the results indicated in paragraphs (a), (b) and (c), below, when tested on: (i) leukemic cells from six myeloid leukemic patients, and (ii) promyelocytic cell line HL-60.
(b) Inhibition of cell proliferation. This was evaluated by inhibition of tritiated thymidine incorporation. The results in the following table are self-explanatory:
In a further experiment, cells (ii) were incubated with the compound of Example I or with sodium butyrate. After a period of time as specified in the following table, the agents were removed by washing the cells, and thymidine incorporation was measured 15 hours after the end of incubation.

[4] = Activity of hydrolysis product under conditions in which the parent compound was active; conditions: conditions in which the parent compound (Example I) was active
From the text: It is postulated that the butyrate esters provided by the invention undergo intracellular hydrolysis to butyric acid; the residual fragments of the hydrolysis would be non-toxic. […] An alternative metabolic route may involve (where appropriate) the oxidation of butyrates to hydroxy-butyrates and/or oxo-butyrates.

[5] = Therapeutic index (LD50/ED50), standard procedures; conditions: in vivo
human lymphocytes = assay: Colony stimulating factors (CSF) production by human lymphocytes, CFU-GM from BALB/c mouse bone marrow; format: cell-based; conditions: for CSF production, # CFU-GM / CSF production, %: 72 hours incubation; for CSF production, %: PHA = 100
Procedure: (§4) CSF activity was assayed by the ability of the supernatants from these cultures to support development on semisolid agar of CFU-GM (colony forming units--granulocytes and macrophages) from bone marrow cells of BALB/c mice.

Lewis Lung Carcinoma = assay: In vivo efficacy, 3LL32 subcutaneously implanted Lewis Lung Carcinoma; set-up: species or system mouse; conditions: i.p.
Procedure: (§2) Moreover, the in vivo efficacy of the compound of the invention prepared in Example I was tested according to protocols adopted from the "Developmental Therapeutics Program, Division of Cancer Treatment, National Cancer Institute", NIH Publication 84-2635, using the following animal models: (1) 3B131 Intraperitoneally (i.p.) implanted B16 Melanoma; (2) 3B132 Subcutaneously (s.c.) implanted B16 Melanoma: and (3) 3LL32 Subcutaneously (s.c.) implanted Lewis Lung Carcinoma. Results according to the following table were obtained.

[6] = system: leukemic cells from six myeloid leukemic patients; assay: Cytotoxicity, viability of cells 60 hours after exposure, Trypan Blue exclusion, cells (i); format: cell-based; conditions: Homo sapiens, read-out: Concentration which resulted in 50% inhibition (LD50), viability
Procedure: as §1
(§3) (a) Cytotoxicity. The viability of the cells 60 hours after exposure was determined by Trypan Blue exclusion.

B16 Melanoma [7] = assay: In vivo efficacy, 3B132 subcutaneously implanted B16 Melanoma; conditions: 125 mg./kg./mouse, i.p.; 1-6 days, daily
Procedure: as §2

[8] = system: promyelocytic cell line HL-60; assay: Cytotoxicity, viability of cells 60 hours after exposure, Trypan Blue exclusion, cells (ii); format: cell-based; conditions: Homo sapiens, read-out: Concentration which resulted in 50% inhibition (LD50), viability
Procedure: as §1, §3

[9] = system: leukemic cells from six myeloid leukemic patients; assay: Inhibition of cell proliferation, tritiated thymidine incorporation, cells (i); format: cell-based, human
Procedure: as §1
(b) Inhibition of cell proliferation. This was evaluated by inhibition of tritiated thymidine incorporation. The results in the following table are self-explanatory: […]

mouse spleen cells = assay: Colony stimulating factors (CSF) production by murine splenocytes, CFU-GM from BALB/c mouse bone marrow; format: cell-based; conditions: for CSF production, %: ConA = 100
Procedure: as §4

neuroblastoma = conditions: doses of up to 10 g./day; cited from earlier work
[10] = system: leukemic cells isolated from myelogenous leukemic patients
[11] = system: refractory acute myelogenous leukemia; conditions: 0.5 g./kg./day; cited from earlier work
[12] = system: acute myelogenous leukemia; conditions: human, in vivo
[13] = cited from earlier work
variety of tumor cells = conditions: induction of morphological and biochemical changes; cited from earlier work
[14] = cited from earlier work; remark: listed apart in the source
[15] = system: colony forming units, granulocytes and macrophages (CFU-GM); conditions: CFU-GM in soft agar; normal bone marrow and peripheral blood of leukemic patients; unpublished work; cited from earlier work
[16] = in vivo; cited from earlier work
[17] = Experiment 1, 20 μM, 24 hours incubation

## N.N.[Cl][Pt][Cl] [cisplatin, reference compound]
B16 Melanoma [1]; 1.5 mg./kg./mouse
  ILS (increased life span compared to untreated animals): 164%

## CCCC(=O)[O-].[Na+] [sodium butyrate, reference compound]
[2]; incubation 24 hours
  NBT reduction (% of positive cells): 11 % of positive cells
[2]; incubation 48 hours
  NBT reduction (% of positive cells): 29 % of positive cells
[2]; incubation 72 hours
  NBT reduction (% of positive cells): 48 % of positive cells
[2]; incubation 96 hours
  NBT reduction (% of positive cells): 66 % of positive cells
[3]; HL-60, read-out: % inhibition of tritiated thymidine incorporation, 0.5 mM, incubation 0.5 hours, washed, measured 15 hours after end of incubation
  inhibition at 500 µM: 0%
[3]; HL-60, read-out: % inhibition of tritiated thymidine incorporation, 0.5 mM, incubation 3.0 hours, washed, measured 15 hours after end of incubation
  inhibition at 500 µM: 0%
[3]; HL-60, read-out: % inhibition of tritiated thymidine incorporation, 0.5 mM, incubation 16.0 hours, washed, measured 15 hours after end of incubation
  inhibition at 500 µM: 0%
[3]; HL-60, read-out: % inhibition of tritiated thymidine incorporation, 0.5 mM, incubation 24.0 hours, washed, measured 15 hours after end of incubation
  inhibition at 500 µM: 22%
[3]; HL-60, read-out: % inhibition of tritiated thymidine incorporation, 0.5 mM, incubation 48.0 hours, washed, measured 15 hours after end of incubation
  inhibition at 500 µM: 50%
[3]; HL-60, read-out: % inhibition of tritiated thymidine incorporation, 0.5 mM, incubation 62.0 hours, washed, measured 15 hours after end of incubation
  inhibition at 500 µM: 94%

## CC(C)(C)C(=O)O [pivalic acid]
[4]
  activity (in words): shows no activity

## CCCC(=O)OCOC(=O)C(C)(C)C [Example I, Pivaloyloxymethyl butyrate]
[5]
  selectivity ratio: 15 to 20
Human lymphocytes; Experiment 1, 20 μM
  CSF production, # CFU-GM: 10 # CFU-GM
  CSF production, %: 33%
Human lymphocytes; Experiment 1, 50 μM
  CSF production, # CFU-GM: 3 # CFU-GM
  CSF production, %: 10%
Human lymphocytes; Experiment 2, 20 μM
  CSF production, # CFU-GM: 43 # CFU-GM
  CSF production, %: 105%
Human lymphocytes; Experiment 2, 50 μM
  CSF production, # CFU-GM: 16 # CFU-GM
  CSF production, %: 39%
Human lymphocytes; human lymphocytes
  CSF production (in words): stimulates CSF production
Lewis Lung Carcinoma; 125 mg./kg./mouse, 1-6 days, daily
  ILS (increased life span compared to untreated animals): 152%
Lewis Lung Carcinoma; 125 mg./kg./mouse, 1-18 days, every odd day
  ILS (increased life span compared to untreated animals): 186%
[6]
  IC50: 150 µM
B16 Melanoma [7]
  ILS (increased life span compared to untreated animals): 150%
[8]
  IC50: 100 µM
[2]; incubation 24 hours
  NBT reduction (% of positive cells): 24 % of positive cells
[2]; incubation 48 hours
  NBT reduction (% of positive cells): 49 % of positive cells
[2]; incubation 72 hours
  NBT reduction (% of positive cells): 66 % of positive cells
[2]; incubation 96 hours
  NBT reduction (% of positive cells): 77 % of positive cells
[9]; Homo sapiens, 0.1 mM, 15 hrs. exposure
  inhibition at 100 µM: 88%
[9]; Homo sapiens, 0.2 mM, 15 hrs. exposure
  inhibition at 200 µM: 99%
Mouse spleen cells; [17]
  CSF production, # CFU-GM: 11 # CFU-GM
  CSF production, %: 10%
Mouse spleen cells; Experiment 1, 50 μM, 24 hours incubation
  CSF production, %: 0%
Mouse spleen cells; murine lymphocytes
  CSF production (in words): stimulates CSF production
[3]; HL-60, 0.5 mM, incubation 0.5 hours, washed, measured 15 hours after end of incubation, read-out: % inhibition of tritiated thymidine incorporation
  inhibition at 500 µM: 52%
[3]; HL-60, 0.5 mM, incubation 3.0 hours, washed, measured 15 hours after end of incubation, read-out: % inhibition of tritiated thymidine incorporation
  inhibition at 500 µM: 92%
[3]; HL-60, 0.5 mM, incubation 16.0 hours, washed, measured 15 hours after end of incubation, read-out: % inhibition of tritiated thymidine incorporation
  inhibition at 500 µM: 99%
[3]; HL-60, 0.5 mM, incubation 24.0 hours, washed, measured 15 hours after end of incubation, read-out: % inhibition of tritiated thymidine incorporation
  inhibition at 500 µM: 99%
[3]; HL-60, 0.5 mM, incubation 48.0 hours, washed, measured 15 hours after end of incubation, read-out: % inhibition of tritiated thymidine incorporation
  inhibition at 500 µM: 99%
[3]; HL-60, 0.5 mM, incubation 62.0 hours, washed, measured 15 hours after end of incubation, read-out: % inhibition of tritiated thymidine incorporation
  inhibition at 500 µM: 99%
[3]; HL-60, 0.5 h, cells (ii), 0.5 mM, 0.5 hr. exposure, read-out: % inhibition of tritiated thymidine incorporation
  inhibition at 500 µM: 52%
[3]; HL-60, 15 h, cells (ii), 0.5 mM, 15 hrs. exposure, read-out: % inhibition of tritiated thymidine incorporation
  inhibition at 500 µM: 99%
B16 Melanoma [1]; 250 mg./kg./mouse
  ILS (increased life span compared to untreated animals): 154%

## CCCC(=O)O [butyric acid/salts, butyric acid]
neuroblastoma
  toxicity (in words): no clinically detectable toxicity
[10]
  cytotoxic and cytodifferentiating potency (in words): the most potent cytotoxic and cytodifferentiating agent
[11]
  remission (in words): partial and temporary remission
  toxic effects (in words): without detectable toxic effects
[6]
  IC50: 1000 µM
[8]
  IC50: 400 µM
[12]
  adverse reaction (in words): no adverse reaction
[13]; high dosages
  toxicity (in words): no toxicity
[13]; human, in vivo
  fluid overload and alkalosis (in words): fluid overload and mild alkalosis may occur
Variety of tumor cells
  anti-tumor activity (in words): anti-tumor activity
[14]; in vitro
  induction period: 48 h
[14]; in vivo
  induction period: 96 to 120 h
[15]
  selectivity (in words): selectivity of butyric acid/salts was demonstrated
[9]; 24 hours, up to 2 mM
  inhibition of tritiated thymidine incorporation (in words): no inhibition
[3]; cells (ii), 24 hours, up to 1 mM
  inhibition of tritiated thymidine incorporation (in words): no inhibition
[16]
  clearance (in words): high clearance
  metabolization (in words): rapid metabolization

## O=P1(N(CCCl)CCCl)NCCCO1 (stereo not shown) [cytoxan, reference compound]
Lewis Lung Carcinoma; 100 mg./kg./mouse, day 1 only
  ILS (increased life span compared to untreated animals): 152%
